Data: paper PMC9068901, “Novel Inhibitors and Activity-Based Probes Targeting Trypsin-Like Serine Proteases” (Frontiers in Chemistry, 2022)
Where two headings read alike, the source gives them in different places. *1 amine or outer side, *2 acyl side, *3 side chain or, on linkers, in order; H or OH if unused. Where a SMILES comes first, the peptide text is derived from it. Side-chain parts run from the residue outwards. [ ]: non-standard residue; d: D form. The star is where a group is joined. Biotin = O=C1N[C@H]2[C@H](CS[C@H]2CCCCC(=O)*)N1; Gly(N-(CH2)3-guanidino) = N=C(N)NCCCNCC(=O)O; Glutaryl = O=C(CCCC(=O)[*:2])[*:1]; X4 = O=C(Oc1c(F)c(F)c(F)c(F)c1F)*; X2 = O=C1CCC(=O)N1OC(=O)*; X3 = C#Cc1cccc(N*)c1; Ahx = NCCCCCC(=O)O; X1 = O=C(n1cncn1)*

How the values were obtained:
[1] = target: T1, human trypsin (Homo sapiens, UniProt P07477); assay: Determination of inhibitor constants against trypsin (progress curves, Cbz-Gly-Gly-Arg-AMC); type: biochemical; conditions: for k3: first-order rate constant; for k3/Ki: second-order rate constant
Procedure: (§1) Recombinant protease activities were assessed using the cognate fluorogenic substrates (final concentration 50 μM) as follows: trypsin (Cbz-Gly-Gly-Arg-AMC), neutrophil elastase (MeO-Suc-Ala-Ala-Pro-Val-AMC) and chymotrypsin (Suc-Ala-Ala-Pro-Phe-AMC). The assay in the presence or absence of protease inhibitors at a range of final concentrations was performed using a standard microtitre plate format. Substrate hydrolysis, at 37°C, was monitored over a 60 min period by measuring the rate of increase in fluorescence (at λex 360 nm, λem 480 nm) using a FLUOstar Optima microplate reader (BMG Labtech).
A broad range of inhibitor concentrations were prepared from a 10 mM stock solution of the five test compounds (NAP851, NAP966, NAP987, NAP884 and NAP858) in N,N-dimethyformamide (DMF). The fluorogenic substrate, Cbz-Gly-Gly-Arg-AMC, was diluted in assay buffer (PBS, pH 7.4) and used at a fixed concentration of 50 μM. All inhibition assays were performed in microtitre plates maintained at 37°C in a final volume of 100 μL. The reaction was initiated by the addition of human trypsin (0.01 μg/well) and the rate of substrate hydrolysis continuously recorded at λex 360 nm, λem 480 nm using a FLUOstar Optima microplate reader (BMG Labtech). The resultant inhibition progress curve for the putative protease inhibitors were analysed according to the kinetic models developed by Tian and Tsou ([Tian and Tsou, 1982]) and Walker and Elmore ([Walker and Elmore, 1984]), for irreversible inhibitors, using GRAFIT (Erithacus Software) as described previously ([Ferguson et al., 2016]).

[2] = target: T2, thrombin (Homo sapiens, UniProt P00734); assay: Activity-based probe labelling of thrombin; type: binding; conditions: 30 min, 37°C; heavy chain 31 kDa
T2 construct: purchased R and D Systems
Procedure: (§2) Samples of recombinant protease (trypsin, human airway trypsin-like protease (HAT), matriptase, thrombin or neutrophil elastase, as indicated in the relevant figure legends) were treated with putative ABPs at a concentration of 50 μM, for 30 min, at 37°C. A control sample was prepared by treating recombinant protease with solvent control only. A further sample was prepared where Cbz-Arg^P(OPh)2 was added 30 min prior to the addition of the ABP under examination. […] All treated samples were then denatured with SDS-containing reducing treatment buffer (10 min at 95°C), followed by resolution by SDS-PAGE and subjected to Western blotting. Note, only stable covalent bonds between the ABP and protease active site would survive the harsh denaturing conditions involved in the resolution process. Resolved proteins were then transferred on to nitrocellulose membrane and labelled with streptavidin-HRP. The ABP-protease complex was then visualised following treatment with Luminata Forte HRP substrate.

[3] = target: T3, matriptase (Homo sapiens, UniProt Q9Y5Y6); assay: Activity-based probe labelling of matriptase; type: binding; conditions: 30 min, 37°C; band at 26 kDa
T3 construct: purchased R and D Systems
T3 sequence (Q9Y5Y6 615-855 limits assumed): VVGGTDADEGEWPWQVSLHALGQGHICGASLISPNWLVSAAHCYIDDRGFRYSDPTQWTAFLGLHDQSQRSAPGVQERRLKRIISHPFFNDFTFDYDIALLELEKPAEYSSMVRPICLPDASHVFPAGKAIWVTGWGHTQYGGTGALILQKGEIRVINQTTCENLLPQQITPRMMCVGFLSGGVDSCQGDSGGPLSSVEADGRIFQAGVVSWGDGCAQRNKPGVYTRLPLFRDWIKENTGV
Procedure: as §2

[4] = target: T4, neutrophil elastase (Homo sapiens, UniProt P08246); assay: Off-target fluorogenic substrate assay, neutrophil elastase; type: biochemical; conditions: 50 μM (highest concentration tested); read-out: inhibition of NE (decrease in activity) relative to controls
T4 construct: purchased Calbiochem
T4 sequence (P08246 30-267): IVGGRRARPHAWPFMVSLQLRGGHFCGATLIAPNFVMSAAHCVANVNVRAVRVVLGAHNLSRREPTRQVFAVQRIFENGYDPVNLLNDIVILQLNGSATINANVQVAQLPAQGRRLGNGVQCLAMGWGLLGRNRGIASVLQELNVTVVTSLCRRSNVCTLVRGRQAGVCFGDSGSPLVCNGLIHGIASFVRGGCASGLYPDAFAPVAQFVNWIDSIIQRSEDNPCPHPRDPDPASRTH
Procedure: as §1

[5] = tested on: chymotrypsin; assay: Off-target fluorogenic substrate assay, chymotrypsin; type: biochemical; conditions: for inhibition of chymotrypsin relative to controls: 50 μM (highest concentration tested)
Procedure: as §1

[6] = tested on: trypsin-like proteases in German cockroach extract; assay: ABP of German cockroach extract; type: binding, Blattella germanica; conditions: probe 50 μM, 30 min, 37°C
Procedure: (§3) Cockroach extract was probed with NAP858 (50 μM) (± heat inactivation at 95°C, for 10 min), for 30 min, at 37°C. Samples were then denatured with SDS-containing reducing treatment buffer (10 min/95°C), followed by resolution by SDS-PAGE and protein transfer unto nitrocellulose membrane which was incubated with streptavidin-HRP (1 in 20,000). The membrane was visualised following treatment with Luminata Forte HRP substrate.
(§4) Removal of endogenous biotinylated proteins present in the cockroach extract was performed in some experiments to improve clarity of the Western blots obtained. Neutravidin agarose beads were washed three times with 1 ml wash buffer (150 mM NaCl, 50 mM Tris, 1 mM EGTA, 1% (v/v) NP-40, pH 7.4) then resuspended in PBS (pH 7.4). These neutravidin beads were then used to bind and remove (pre-clear) endogenous biotinylated proteins present in the cockroach extract. This involved rotation of the bead-cockroach extract mix at 4°C for 30 min followed by centrifugation to enable collection of the pre-cleared supernatant fraction. The bead fraction containing bound endogenous biotinylated proteins from cockroach extract was discarded. The supernatant was then probed with NAP858 (50 μM) (±Cbz-Arg^P(OPh)2), for 30 min, at 37°C, followed by addition of freshly washed neutravidin agarose beads. […]

[7] = tested on: trypsin; assay: Activity-based probe labelling of trypsin (SDS-PAGE, Western blot, streptavidin-HRP); type: binding; conditions: probe 50 μM, 30 min, 37°C
Procedure: as §2

[8] = tested on: trypsin; assay: Off-target fluorogenic substrate assay, trypsin; type: biochemical; conditions: across the range of concentrations studied, vs chymotrypsin and NE
Procedure: as §1

[9] = target: T5, human airway trypsin-like protease (HAT) (Homo sapiens, UniProt O60235); assay: Activity-based probe labelling of HAT; type: binding; conditions: 30 min, 37°C; band at 25 kDa
T5 construct: purchased R and D Systems
T5 sequence (O60235 187-418 limits assumed): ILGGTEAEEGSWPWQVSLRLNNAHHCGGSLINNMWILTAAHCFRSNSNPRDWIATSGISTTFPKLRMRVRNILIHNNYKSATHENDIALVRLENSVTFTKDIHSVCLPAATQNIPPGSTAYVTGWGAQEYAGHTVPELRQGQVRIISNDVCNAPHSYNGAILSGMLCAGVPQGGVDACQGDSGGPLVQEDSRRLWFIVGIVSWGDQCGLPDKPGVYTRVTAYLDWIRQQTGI
T5 sequence (O60235 44-186 partner limits assumed): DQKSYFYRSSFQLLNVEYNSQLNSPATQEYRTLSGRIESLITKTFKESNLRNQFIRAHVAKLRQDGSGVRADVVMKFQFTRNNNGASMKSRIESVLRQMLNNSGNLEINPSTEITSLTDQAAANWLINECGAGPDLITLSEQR
Procedure: as §2

[10] = tested on: trypsin-like proteases in American cockroach extract; assay: ABP of American cockroach extract; type: binding, Periplaneta americana; conditions: probe 50 μM, 30 min, 37°C
Procedure: as §3, §4

[11] = target: T3, matriptase; set-up: method as in Reihill et al., 2016; conditions: in words; ref Reihill et al., 2016; cited from earlier work
[12] = tested on: HAT; set-up: method as in Reihill et al., 2016; conditions: in words; ref Reihill et al., 2016; cited from earlier work
[13] = target: T1, human trypsin; set-up: method as in PMID 10611275; conditions: ref [30]; cited from earlier work
[14] = tested on: trypsin; assay: Click chemistry labelling of trypsin with rhodamine-azide; type: binding; conditions: trypsin 1 μg
Procedure: (§5) Samples pre-treated with competitive inhibitor (Cbz-Arg^P(OPh)2 for trypsin and Cbz-Val^P(OPh)2 for neutrophil elastase) for 30 min prior to addition of NAP884, were included for comparison. Following treatment with NAP884, DMSO (25% v/v final concentration), rhodamine-X azide (60 µM final concentration), copper (II)-TBTA complex (1 mM final concentration) and freshly prepared sodium ascorbate (1 mM final concentration) were added. The samples were mixed and incubated at room temperature in the dark for 1 h with gentle agitation. Samples were then denatured with SDS-containing reducing treatment buffer (10 min at 95°C), followed by resolution by SDS-PAGE and visualisation under UV light.

[15] = target: T4, neutrophil elastase; assay: Click chemistry labelling of neutrophil elastase with rhodamine-azide; type: binding; conditions: NE 1 μg, 30 min, 37°C
Procedure: as §5, with “Samples of recombinant protease (trypsin and neutrophil elastase) were treated with alkyne-containing probe NAP884 at a concentration of 50 μM, for 30 min at 37°C. Samples pre-treated” for “Samples pre-treated”

[16] = PBS pH 7.4, 37°C, 50 μM Cbz-Gly-Gly-Arg-AMC, ±S.E.M., three determinations, read-out: Ki
[17] = PBS pH 7.4, 37°C, ±S.E.M., three determinations

Row | Structure (SMILES) | Ki [1, 16] | k3 [1, 17] | k3/Ki [1, 17] | inhibition at 50 µM [4] | inhibition of chymotrypsin relative to controls [5] | labelling of trypsin [7] | selectivity of action for trypsin [8] | also measured
1 | N=C(N)NCCCN(CC(=O)NCC(=O)NCC(=O)NCCCOCCOCCOCCCNC(=O)CCCC[C@@H]1SC[C@@H]2NC(=O)N[C@@H]21)C(=O)ON1C(=O)CCC1=O [NAP858] | 226 nM | 0.473 (±0.101) min^−1 | 2.06 (±0.884) x 10^6 M^−1 min^−1 | < 10% | < 10% | labelling of a single protein band corresponding to the correct molecular mass of trypsin | pronounced selectivity of action in inhibiting trypsin | labelling of thrombin [2]: can act as an AP for thrombin; labelling of matriptase [3]: does indeed function as an AP for both proteases; bands detected in B. germanica extract [6]: close doublet of protein bands of similar molecular mass (≈25 kDa); labelling of HAT [9]: does indeed function as an AP for both proteases; bands detected in American cockroach extract [10]: single, intense band with an apparent molecular mass of 25 kDa
2 | N=C(N)NCCC[C@H](NC(=O)CCC(=O)NCCCOCCOCCOCCCNC(=O)CCCC[C@@H]1SC[C@@H]2NC(=O)N[C@@H]21)P(=O)(Oc1ccccc1)Oc1ccccc1 [QUB-TL1] |  |  |  |  |  |  |  | inhibition of matriptase [11]: potent inhibitor; inhibition of HAT [12]: potent inhibitor; Ki [13]: 174 nM; k3 [13]: 0.284 min⁻¹; k3/Ki [13]: 27300 M⁻¹ s⁻¹
3 | N=C(N)NCCCN(CC(=O)NCC(=O)NCC(=O)NCCCCCC(=O)N[C@@H](CCCCNC(=O)CCCC[C@@H]1SC[C@@H]2NC(=O)N[C@@H]21)C(=O)O)C(=O)Oc1c(F)c(F)c(F)c(F)c1F [NAP966] (X4-[Gly(N-(CH2)3-guanidino)]GG[Ahx]K(Biotin)-OH) |  | 0.401 (±0.007) min^−1 | 1.92 (±0.250) x 10^5 M^−1 min^−1 |  |  |  |  | Ki ([1]; Ki): ~2100 nM; Ki ([1]; Ki, PBS pH 7.4, 37°C, 50 μM Cbz-Gly-Gly-Arg-AMC, ±S.E.M., three determinations): 2120 nM

Continued, in another order:

Row | Ki [1, 16] | k3 [1, 17] | k3/Ki [1, 17] | inhibition at 50 µM [4] | Structure (SMILES) | inhibition of chymotrypsin relative to controls [5] | labelling of trypsin [7] | selectivity of action for trypsin [8] | also measured
4 | 7560 nM | 0.160 (±0.020) min^−1 | 2.46 (±0.858) x 10^4 M^−1 min^−1 |  | N=C(N)NCCCN(CC(=O)NCC(=O)NCC(=O)NCCCCCC(=O)N[C@@H](CCCCNC(=O)CCCC[C@@H]1SC[C@@H]2NC(=O)N[C@@H]21)C(=O)O)C(=O)n1cncn1 [NAP851] (X1-[Gly(N-(CH2)3-guanidino)]GG[Ahx]K(Biotin)-OH; N-terminus assumed) |  |  |  | substrate turnover at prolonged incubation ([1]; progress curves, 60 min incubation): slight increase in fluorescence, due to residual substrate turnover; Ki ([1]; read-out: Ki): ~7600 nM; k3/Ki fold smaller than NAP858 ([1]; trypsin): ~8 fold; k3/Ki fold smaller than NAP897/NAP884 ([1]; trypsin): ~4 fold; k3/Ki fold smaller than NAP966 ([1]; trypsin): ~6 fold
5 | 663 nM | 0.741 (±0.225) min^−1 | 1.35 (±0.376) x 10^6 M^−1 min^−1 | < 10% | N=C(N)NCCCN(CC(=O)NCC(=O)NCC(=O)NCCCCCC(=O)N[C@@H](CCCCNC(=O)CCCC[C@@H]1SC[C@@H]2NC(=O)N[C@@H]21)C(=O)O)C(=O)ON1C(=O)CCC1=O [NAP897] (X2-[Gly(N-(CH2)3-guanidino)]GG[Ahx]K(Biotin)-OH) | < 10% | labelling of a single protein band corresponding to the correct molecular mass of trypsin | pronounced selectivity of action in inhibiting trypsin | 
6 | 420 nM | 0.528 (±0.064) min^−1 | 1.34 (±0.351) x 10^6 M^−1 min^−1 | ~50% | C#Cc1cccc(NC(=O)CCCC(=O)NCCCC[C@H](NC(=O)CCCCCNC(=O)CNC(=O)CNC(=O)CN(CCCNC(=N)N)C(=O)ON2C(=O)CCC2=O)C(=O)O)c1 [NAP884] (X2-[Gly(N-(CH2)3-guanidino)]GG[Ahx]K([Glutaryl-X3])-OH) |  |  | pronounced selectivity of action in inhibiting trypsin | detection of trypsin ([14]; probe 1 μM): not detectable; detection of trypsin ([14]; probe 10 μM): enabled the detection of trypsin; detection of trypsin ([14]; probe 50 μM): enabled the detection of trypsin; inhibitory behaviour against chymotrypsin ([5]; in words): similarly discriminating inhibitory behaviour against trypsin compared to chymotrypsin; labelling of NE [15]: complete absence of labelling of NE
